Consider 1 compound from US20050159312A1, “Tryptophan aminotransferase, indole-3-pyruvate decarboxylase and indole-3-acetaldehyde oxidase as novel targets for herbicides” (priority 2002, published 2005).

In assay [1] the test system is indole-3-acetic acid (IEA) synthesis reaction. Put plainly: Enzyme assay for inhibitors of indole-3-acetic acid (IEA, auxin) biosynthesis, enzyme extract from plant shoots. It is filed as biochemical, Chenopodium album. Here is the method:
To obtain the enzyme extract, 2 g of frozen plant shoots of Chenopodium album (common lambsquarters), which had been comminuted in a pestle and mortar under liquid nitrogen, were defrosted at room temperature in 3 ml of 100 mM EPPS extraction buffer (5 mM dithiothreitol, 6 μM pyridoxal phosphate, 10 μM leupeptin, 10 μM Pefabloc SC, pH 8.5) together with a spatula-tipfull of polyvinyl pyrrolidone in the course of 30 minutes with gentle stirring. Thereafter, the plant material was centrifuged for 10 minutes at 4° C. and the supernatant was desalinified on a Sephadex G-25 column (preequilibrated with 5 mM EPPS elution buffer (1 mM dithiothreitol, 6 μM pyridoxal phosphate, 10 μM Pefabloc SC, pH 8.5). The resulting enzyme extract (400 μl) was incubated in the test assay (volume 600 μl) for 2 hours at 37° C. in the presence of 20 μM pyridoxal phosphate, 80 mM EPPS extraction buffer, 50 μM L-tryptophan, 50 μM α-ketoglutarate and 50 μM indole with addition of 100 μl of EPPS extraction buffer and 6 μl of active ingredient solution (10 mM compound I in DMSO). The control without compound I was treated with the corresponding amount of DMSO. The reaction was subsequently stopped by addition of 20 μl 7.2N HCl and 3 ml of ethyl acetate. The control assays without incubation were placed on ice and immediately treated with HCl and ethyl acetate. After reextraction with 3 ml of ethyl acetate, the organic phases (6 ml) are combined and concentrated under a nitrogen stream, and the samples are methylated with diazomethane. […] Thereafter, the amount of IEA-Me was determined immunoanalytically by means of monoclonal antibodies (100% reactivity to IEA-Me); (method of Weiler E. W., Eberle J., Mertens R., Atzorn R., Feyerabend M., Jourdan P. S., Arnscheidt A., Wieczorek U., in: Immunology in Plant Science (Wang T. L., Ed.), Society for Experimental Biology, Seminar Series 29, Cambridge University Press, Cambridge, 1986, pp. 27-58) and used as measurement for the enzyme activities.

Another assay has as its system Chenopodium album. Briefly: Greenhouse herbicidal activity, post-emergence. Type of assay: in vivo. The settings on record: 1.0 kg a.s./ha. The source says:
(§1) The culture containers used were plastic pots comprising loamy sand with approximately 3.0% humus as substrate. The seeds of the test plants were sown separately for each species. For the post-emergence treatment, the test plants were first grown to a plant height of from 3 to 15 cm, depending on the plant habit, and only then treated with the active ingredients which had been suspended or emulsified in water. To this end, the test plants were either sown directly and grown in the same containers, or they were first grown separately as seedlings and transplanted into the test containers a few days prior to treatment. […] Depending on the species, the plants were kept at from 10-25° C. or 20-35° C., respectively. The test period extended over 2 to 4 weeks. During this time, the plants were attended, and their response to the individual treatments was evaluated. Evaluation was carried out using a scale of from 0 to 100. 100 means no emergence of the plants, or complete destruction of at least the aerial parts, while 0 means no damage, or normal course of growth. The plants used in the greenhouse experiments belong to the following species: [table]

The next assay has as its system Echinocloa crus-galli. Briefly: Greenhouse herbicidal activity, post-emergence. Conditions: 1.0 kg a.s./ha. Type of assay: in vivo.
Text: as §1

The test system of another assay is Pharbitis purpurea. Briefly: Greenhouse herbicidal activity, post-emergence. The settings on record: 1.0 kg a.s./ha. It is filed as in vivo.
Text: as §1

For the compound `CNC(=O)C(CNC(=O)c1ccccc1F)NC(=O)c1ccc(C(F)(F)F)cc1F` (stereo not drawn) [compound I], the “pMol IEA-Me/g fresh shoot weight” value in assay [1] (100 μM compound I, incubation 2 hours at 37° C., mean from three measurements) is given as 156.0 +/− 14.8 pMol IEA-Me/g fresh shoot weight. Besides, in assay [1] (100 μM compound I, incubation 2 hours at 37° C., control value without incubation subtracted), the “Inhibition [%]” value came to 73%. Also, in assay [1] (in vitro), the “synthesis of indole-3-acetic acid from L-tryptophan” value was “inhibited”. For the same compound, the herbicidal efficiency result with Chenopodium album, with Echinocloa crus-galli and in the assay with Pharbitis purpurea was “very good herbicidal efficiency” throughout.
